Reference: patent EP0423133B1, “ENZYMATIC RESOLUTION SYSTEMS AND COMPOUNDS USEFUL IN THE SYSTEMS AND THEIR REPARATIONS” (priority 1988, dated 1989)
≈ marks a conversion by molar mass, not a printed value. Structures can show the parent of a compound that is named as a salt. Where two headings read alike, the source gives them in different places.

Assays:
[1] = system: Protease XXIII; test: Homogeneous aqueous enzymatic resolution (ester hydrolysis) with enzyme A; type: biochemical, Aspergillus oryzae; settings: for enantiomeric excess: pH 7.5, 100 mg Protease XXIII (A)
Protocol: The enzymes used in Examples 6.2.1.1-6.2.1.17, 6.2.1.20-6.2.1.21, 6.2.1.23-6.2.1.28, 6.2.2.7, and 6.2.3.1-6.2.3.5 that follow were all proteases commercially available from Sigma Chemical Co., St. Louis, MO. […] For examples 6.2.2.5-6.2.2.6, Candida lipase obtained from Genzyme Corporation was used.
No further purification was performed.
The aqueous layer was retained.

[2] = biological target: T1, Protease VIII: "Subtilopeptidase A" (Bacillus licheniformis, UniProt P00780); test: Homogeneous aqueous enzymatic resolution (ester hydrolysis) with enzyme B; type: biochemical; settings: for % e.e.: acid product
T1 sequence (P00780 106-379): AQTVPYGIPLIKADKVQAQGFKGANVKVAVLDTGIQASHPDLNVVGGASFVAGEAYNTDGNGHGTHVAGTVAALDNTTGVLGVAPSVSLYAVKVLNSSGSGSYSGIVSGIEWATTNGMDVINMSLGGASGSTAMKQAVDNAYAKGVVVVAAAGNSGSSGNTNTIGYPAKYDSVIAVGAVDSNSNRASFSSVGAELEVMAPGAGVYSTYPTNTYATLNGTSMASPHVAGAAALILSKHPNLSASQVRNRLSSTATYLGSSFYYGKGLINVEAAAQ

[3] = biological target: T2, Protease XXVII: "Nagarse" (Bacillus amyloliquefaciens, UniProt P00782); test: Homogeneous aqueous enzymatic resolution (ester hydrolysis) with enzyme D; type: biochemical; settings: 0.010 mol ester in 100 ml 0.2 M sodium phosphate buffer pH 7.8, 150 mg enzyme D
T2 sequence (P00782 108-382): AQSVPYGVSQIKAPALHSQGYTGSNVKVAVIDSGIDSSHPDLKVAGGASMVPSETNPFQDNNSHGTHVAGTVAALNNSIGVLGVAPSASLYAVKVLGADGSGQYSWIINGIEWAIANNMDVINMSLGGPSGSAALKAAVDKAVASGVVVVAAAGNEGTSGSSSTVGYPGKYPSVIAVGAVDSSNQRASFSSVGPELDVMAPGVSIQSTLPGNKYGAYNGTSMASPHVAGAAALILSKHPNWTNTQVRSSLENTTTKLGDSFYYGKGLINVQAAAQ
Excerpt: (§1) The enzymes used in Examples 6.2.1.1-6.2.1.17, 6.2.1.20-6.2.1.21, 6.2.1.23-6.2.1.28, 6.2.2.7, and 6.2.3.1-6.2.3.5 that follow were all proteases commercially available from Sigma Chemical Co., St. Louis, MO. These proteases are listed in each example using the Sigma numbering system, which is summarized below: • Protease VIII: "Subtilopeptidase A", product P-5380 (also known as subtilisin Carlsberg) • Protease XIV: from Streptomyces griseus, product P-5147 • Protease XVI: from Bacillus subtilis, product P-8775 • Protease XXIII: from Aspergillus oryzae, product P-4032 • Protease XXVII: "Nagarse", product P-4789 • Protease XXIV: bacterial protease, product P-8038 An additional protease enzyme, which was designated Prozyme 6, was obtained from the Amano Enzyme Corporation and used in Examples 6.2.1.18-6.2.19, 6.2.1.22, 6.2.1.29-6.2.1.30 and 6.2.2.1-6.2.2.4 described below. A pig liver esterase was used in Example 6.21.11; this enzyme, obtained from Sigma Chemical Company, was designated as their product E-3128. For examples 6.2.2.5-6.2.2.6, Candida lipase obtained from Genzyme Corporation was used. Finally, Candida lipase, product L-1754, obtained from Sigma Chemical Co. was used in Example 6.2.2.7.

[4] = Solubility by absorbance of saturated solutions at 262 nm; type: physicochemical
[5] = system: Protease XVI; test: Homogeneous aqueous enzymatic resolution (ester hydrolysis) with enzyme C; type: biochemical, Bacillus subtilis; settings: 10.0 mmol ester in 100 ml 0.2 M phosphate buffer pH 7.0, 100 mg enzyme C, 20-22 °C, 20 hours; for % e.e.: acid product, R
Excerpt: as §1

[6] = system: Prozyme 6; test: Homogeneous aqueous enzymatic resolution (ester hydrolysis) with enzyme F; type: biochemical, Aspergillus oryzae; settings: for % CONVERSION / % e.e.: 10 mmol ester in 100 ml 0.2 M buffer pH 7.0, 100 mg Prozyme 6 (F), 25 °C, 18 hours; for % e.e.: acid product, R
[7] = system: Candida lipase (Genzyme Corporation); test: Asymmetric hydrolysis in a multiphase membrane bioreactor with enzyme G; type: biochemical, Candida cylindracea; settings: neat liquid ester, pH 7.7
Excerpt: The module was then drained.
This material was recrystallized from hexane.

[8] = 10.0 mmol ester in 100 ml 0.2 M phosphate buffer pH 7.0, 100 mg enzyme A, 20-22 °C, 20 hours
[9] = acid product, R, 10.0 mmol ester in 100 ml 0.2 M phosphate buffer pH 7.0, 100 mg enzyme A, 20-22 °C, 20 hours
[10] = aqueous buffer, saturated solutions, pH 7 (50 mM phosphate buffer), room temperature, read-out: Solubility

CC(C)Cc1ccc(C(C)C(=O)OCCS(=O)(=O)O)cc1 (racemic) [Compound 2, Sodium Salt of 2-Sulfoethyl Ester of 2-(4-Isobutylphenyl) propanoic Acid]
% CONVERSION [1, 8]: 22.3% | % e.e. [1, 9]: 93.3%

CC(C)Cc1ccc(C(C)C(=O)OCCCS(=O)(=O)O)cc1 (racemic) [Compound 3, Potassium Salt of 3-Sulfopropyl Ester of 2-(4-Isobutylphenyl) propanoic Acid]
% CONVERSION [1, 8]: 50.0% | % CONVERSION ([1]; 0.010 mol ester in 100 ml 0.2 M sodium phosphate buffer pH 7.8, 150 mg enzyme A): 47.1% | conversion of the racemic ester to acid ([1]; about 1 M ester, 40 ml, 0.1 M potassium phosphate pH 7.0, 1.00 gm protease (A), 23.9 hours at room temperature, by hydroxide titration): 29% | % e.e. [1, 9]: 84.2% | % e.e. ([1]; acid product, R, 0.010 mol ester in 100 ml 0.2 M sodium phosphate buffer pH 7.8, 150 mg enzyme A): 97.7% | % CONVERSION ([2]; 0.010 mol ester in 100 ml 0.2 M sodium phosphate buffer pH 7.8, 150 mg enzyme B): 36.4% | % e.e. ([2]; R, 0.010 mol ester in 100 ml 0.2 M sodium phosphate buffer pH 7.8, 150 mg enzyme B): 98.6% | % CONVERSION [3]: 32.0% | % e.e. ([3]; acid product, R): 91.0%

CC(C)Cc1ccc(C(C)C(=O)OCCCCS(=O)(=O)O)cc1 (racemic) [Compound 4, Potassium Salt of 4-Sulfobutyl Ester of 2-(4-Isobutylphenyl) propanoic Acid]
solubility [4, 10]: 1130 mM | % CONVERSION [1, 8]: 43.2% | % e.e. [1, 9]: 97.4% | % CONVERSION ([2]; 10.0 mmol ester in 100 ml 0.2 M phosphate buffer pH 7.0, 100 mg enzyme B, 20-22 °C, 20 hours): 20.0% | % e.e. ([2]; R, 10.0 mmol ester in 100 ml 0.2 M phosphate buffer pH 7.0, 100 mg enzyme B, 20-22 °C, 20 hours): 92.1% | % CONVERSION [5]: 22.0% | % e.e. [5]: 61.7%

CC(C)Cc1ccc(C(C)C(=O)OCCOP(=O)(O)O)cc1 (racemic) [Compound 5, Disodium Salt of the Phosphoric Acid Ester of the 2-Hydroxyethyl Ester of 2-(4-Isobutylphenyl) propanoic Acid]
% CONVERSION [5]: 5.3% | % e.e. [5]: 75.6%

CC(C)Cc1ccc(C(C)C(=O)OCCCOS(=O)(=O)O)cc1 (racemic) [Compound 6, Potassium Salt of the Sulfuric Acid Ester of 3-Hydroxypropyl Ester of 2-(4-Isobutylphenyl) propanoic Acid]
% CONVERSION [1, 8]: 24.3% | % e.e. [1, 9]: 96.5%

COc1ccc2cc(C(C)C(=O)OCS(=O)(=O)O)ccc2c1 (racemic) [Compound 9, Sodium Salt of Sulfomethyl Ester of 2-(6-Methoxy-2-naphthyl) propanoic Acid]
conversion (enzymatic hydrolysis) ([1]; 2.0 gm ester in 400 ml 50 mM sodium phosphate buffer pH 7.5, 100 mg Protease XXIII (A), 25 degrees, 16 hours): 18% | enantiomeric excess ([1]; R isomer of naproxen, acid product, 16 hours): 61.2% | enantiomeric excess ([1]; S isomer of Naproxen from chemical hydrolysis (pH 12) of the unconverted ester, 16 hours): 45.5%

CC(C)Cc1ccc(C(C)C(=O)OCC[N+](C)(C)C)cc1 (racemic) [Compound 10, Iodide Salt of 2-(N,N,N-Trimethylammonium)ethyl Ester of 2-(4-Isobutylphenyl) propanoic Acid]
solubility [4, 10]: 2180 mM | % CONVERSION [1, 8]: 30.1% | % e.e. [1, 9]: >99%

COc1ccc2cc(C(C)C(=O)OCC[N+](C)(C)C)ccc2c1 (racemic) [Compound 11, Methyl Sulfate Salt of 2-(N,N,N-Trimethylammonium) ethyl Ester of 2-(6-Methoxy-2-naphthyl)propanoic Acid]
% CONVERSION [6]: 24.3% | % e.e. [6]: 34.0%

COc1ccc2cc(C(C)C(=O)OCCC[N+](C)(C)C)ccc2c1 (racemic) [Compound 12, Methyl Sulfate Salt of 3-(N,N,N-Trimethylammonium) propyl Ester of 2-(6-Methoxy-2-naphthyl)propanoic Acid]
solubility [4, 10]: 1610 mM | % CONVERSION [6]: 34.0% | % e.e. [6]: 21.6%

CC(Cl)C(=O)OCCCS(=O)(=O)O (racemic) [Compound 13, Potassium Salt of 3-Sulfopropyl Ester of 2-Chloropropanoic Acid]
conversion as measured by titrimetry ([2]; 8.05 gm ester in 300 ml 0.1 M potassium phosphate buffer pH 7.0, 20 mg subtilisin protease (B), point at which the reaction was stopped): 25%

CC(CSC(=O)c1ccccc1)C(=O)OCS(=O)(=O)O (racemic) [Compound 16, Potassium Salt of the Sulfomethyl Ester of (±)-S-3-Benzoylthio-2-methylpropanoic Acid]
% CONVERSION ([1]; 10.0 mmol ester in 100 ml 0.2 M buffer pH 7.0, 100 mg enzyme A, 25 °C, 18 hours): 53% | % e.e. ([1]; acid product, S, 10.0 mmol ester in 100 ml 0.2 M buffer pH 7.0, 100 mg enzyme A, 25 °C, 18 hours): 3% | % CONVERSION ([2]; 10.0 mmol ester in 100 ml 0.2 M buffer pH 7.0, 100 mg enzyme B, 25 °C, 18 hours): 26% | % e.e. ([2]; S, 10.0 mmol ester in 100 ml 0.2 M buffer pH 7.0, 100 mg enzyme B, 25 °C, 18 hours): 10%

CC(Oc1ccc(Cl)cc1)C(=O)OCS(=O)(=O)O (racemic) [Compound 17, Sodium Salt of the Sulfomethyl Ester of 2-(4-Chlorophenoxy) propanoic Acid]
completion of reaction ([6]; 10 mmol ester in 100 ml 0.2 M sodium phosphate buffer pH 7.0, 35 mg Enzyme F, 30 °C, 1 hour): 22.5%

CC(C)Cc1ccc(C(C)C(=O)OCC(F)(F)F)cc1 (racemic) [Compound 19, 2,2,2-Trifluoroethyl Ester of 2-(4-Isobutylphenyl)propanoic Acid]
solubility [4, 10]: 0.4 mM (≈ 115 µg/mL) | solubility ([4]; water, as stated in the text of the examples, read-out: water solubility): ~0.4 mM (≈ 115 µg/mL) | average hydrolytic rate ([7]; first 60 minutes, 3.0 grams Candida lipase in membrane): 160 amol/min | average hydrolysis rate ([7]; over the next 76 hours, by titrimetry): 21 µmol/min | conversion to acid ([7]; over the next 76 hours): about 9.8%

CC(C)Cc1ccc(C(C)C(=O)OCCN(C)C)cc1 (stereo not shown) [2-(N,N-dimethylamino)ethyl ester of ibuprofen]
solubility [4, 10]: 10 mM (≈ 2770 µg/mL)

COCCOC(=O)C(C)c1ccc(CC(C)C)cc1 (stereo not shown) [Methoxyethyl ester of ibuprofen]
solubility [4, 10]: 0.18 mM (≈ 47.6 µg/mL)
